Tested on: embryoid bodies formed from pluripotent stem cells
Test: Selective differentiation of embryoid bodies into hindbrain tissue (region-specific gene expression)
Type: cell-based
Settings: cultured 7 days
Description: When the density of pluripotent stem cells reached approximately 80%, residues on the cell surface were washed using D-PBS and separated into each cell. Furthermore, the cells were diluted to contain approximately 100,000 cells per 10 ml of the embryoid body formation medium, and approximately 100 μl of the medium containing the cells was injected into each well of an Ultra-Low-attachment U bottom 96 well plate (Corning, 7007). Then, the cells were added in an incubator under a CO2 atmosphere at 37° C. and cultured for about 24 hours to form embryoid bodies. After the embryoid bodies were formed as described above, after about one day, it was confirmed whether one spherical embryoid body with a clean surface was formed well in each well. A hindbrain tissue induction medium containing IWP-2 as an endogenous WNT secretion inhibitor at a concentration of 1 μM and CHIR99021 as a WNT signaling agonist at concentrations of 1 μM, 2 μM, 3 μM, and 5 μM was prepared, and then about 100 μl of the hindbrain tissue induction medium was added to each well containing the embryoid body. About 100 μl of the existing medium was removed once every two days, about 100 μl of the hindbrain tissue induction medium was added, and the embryoid bodies were cultured for 7 days to confirm whether selective differentiation of the embryoid bodies into hindbrain tissue was performed well.

Cc1c[nH]c(-c2cnc(NCCNc3ccc(C#N)cn3)nc2-c2ccc(Cl)cc2Cl)n1 [CHIR99021]
expression intensities of hindbrain region-specific genes versus other brain region-specific genes (hindbrain tissue induction medium with CHIR99021 2 μM to 3 μM plus IWP-2 1 μM): much stronger than those of other brain region-specific genes | expression of forebrain region-specific genes versus other brain regions (hindbrain tissue induction medium with CHIR99021 approximately 1 μM plus IWP-2 1 μM): stronger than that of other brain regions | expression of spinal cord region-specific genes versus other brain regions (hindbrain tissue induction medium with CHIR99021 approximately 5 μM plus IWP-2 1 μM): stronger than that of other brain regions | expression of hindbrain region-specific genes (hindbrain tissue induction medium with CHIR99021 more than 1 μM and less than 5 μM plus IWP-2 1 μM, FIGS. 2 to 4): strongly induced

From patent US20260055365A1, “METHOD FOR SELECTIVE DIFFERENTIATION FROM PLURIPOTENT STEM CELLS TO HINDBRAIN TISSUE” (NEXT&BIO INC., priority 2022, published 2026)
